Read-outs that look alike come from different tables or passages of the source.
How the values were obtained:
CYP2C9 = CYP2C9 (Homo sapiens, UniProt P11712); experiment: CYP2C9 inhibition in HLMs (diclofenac)
Method: (§3) Lignans were first dissolved in methanol. The final organic solvent concentration in the incubation media was ≤1.0% (v/v). The microsomal incubation was conducted using two cocktail sets containing non-interactive substrates: set A containing phenacetin, bupropion, amodiaquine, diclofenac, S-mephenytoin, and dextromethorphan as substrates for CYP1A2, CYP2B6, CYP2C8, CYP2C9, CYP2C19, and CYP2D6, respectively; and set B containing coumarin and chlorzoxazone as substrates for CYP2A6 and CYP2E1, and midazolam, nifedipine, and testosterone as substrates for CYP3A4 (Table 1). These substrates are known to be selective for each P450 isoforms. Incubation mixtures containing potassium phosphate buffer (0.1 M, pH 7.4), pooled HLMs (0.25 mg/mL), P450 probe substrate cocktails, and lignan (0~50 μM) were pre-incubated at 37 °C (5 min). Following pre-incubation, an NADPH generating system (1.3 mM NADP^+, 3.3 mM G6P, 1 unit/mL G6PDH, and 3.3 mM MgCl2) was added to initiate the reaction, and further incubated for 10 min. The reaction was quenched with 50 μL of cold acetonitrile containing internal standard (IS; 7 nM trimipramine). After centrifugation at 14,000 rpm (5 min at 4 °C), aliquots of supernatants were filtered through a 0.2 μm membrane filter and were measured by liquid chromatography-tandem mass spectrometry (LC-MS/MS). All microsomal incubations were performed in triplicate.

UGT1A9 = target: T1, UGT1A9 (Homo sapiens, UniProt O60656); experiment: UGT1A9 inhibition in HLMs (mycophenolic acid); type: in vitro ADME; conditions: average in triplicate, read-out: IC50, UGT 1A9
T1 construct: pooled HLMs (0.25 mg/mL); tissue XenoTech H2630; host or cells: pooled human liver microsomes, mixed gender
T1 sequence (O60656 26-530): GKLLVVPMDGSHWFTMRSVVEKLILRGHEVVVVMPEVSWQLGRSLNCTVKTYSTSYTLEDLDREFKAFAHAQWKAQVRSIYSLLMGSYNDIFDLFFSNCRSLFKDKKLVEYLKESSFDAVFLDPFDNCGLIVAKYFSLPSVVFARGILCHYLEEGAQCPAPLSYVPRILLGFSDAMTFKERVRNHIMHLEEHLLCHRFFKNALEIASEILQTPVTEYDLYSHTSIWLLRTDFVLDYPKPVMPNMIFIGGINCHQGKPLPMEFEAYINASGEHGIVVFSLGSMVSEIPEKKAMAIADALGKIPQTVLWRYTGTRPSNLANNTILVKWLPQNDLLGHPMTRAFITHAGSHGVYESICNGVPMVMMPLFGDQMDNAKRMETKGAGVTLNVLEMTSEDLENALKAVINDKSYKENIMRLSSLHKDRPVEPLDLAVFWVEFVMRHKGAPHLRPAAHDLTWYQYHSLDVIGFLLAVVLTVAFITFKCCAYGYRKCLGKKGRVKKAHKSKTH
Method: (§1) The inhibitory potential of six lignans on six UGT activities was evaluated using the previously developed cocktail method with slight modifications. […] These substrates are known to be selective for each UGT isoforms.

CYP1A2 = target: T2, CYP1A2 (Homo sapiens, UniProt P05177); experiment: CYP1A2 inhibition in HLMs (phenacetin, cocktail, IC50 and IC50 shift); type: in vitro ADME
T2 construct: pooled HLMs (0.25 mg/mL); tissue XenoTech H2630; host or cells: pooled human liver microsomes, mixed gender
T2 sequence (P05177 1-516): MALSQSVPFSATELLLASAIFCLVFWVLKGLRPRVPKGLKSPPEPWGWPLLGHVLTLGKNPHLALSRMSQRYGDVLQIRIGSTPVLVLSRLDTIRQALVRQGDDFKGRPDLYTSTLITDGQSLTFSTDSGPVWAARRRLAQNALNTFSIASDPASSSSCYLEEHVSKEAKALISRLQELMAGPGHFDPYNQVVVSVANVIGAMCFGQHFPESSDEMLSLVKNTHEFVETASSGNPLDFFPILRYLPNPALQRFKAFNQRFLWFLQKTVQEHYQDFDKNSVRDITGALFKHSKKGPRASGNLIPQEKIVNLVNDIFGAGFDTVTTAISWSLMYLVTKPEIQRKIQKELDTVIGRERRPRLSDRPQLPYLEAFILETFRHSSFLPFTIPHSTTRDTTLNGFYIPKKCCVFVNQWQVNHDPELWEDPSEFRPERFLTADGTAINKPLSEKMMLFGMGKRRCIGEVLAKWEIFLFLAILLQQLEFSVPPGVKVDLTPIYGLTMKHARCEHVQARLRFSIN
Method: (§2) Lignans were first dissolved in methanol. […] All microsomal incubations were performed in triplicate.

UGT1A6 = target: T3, UGT1A6 (Homo sapiens, UniProt P19224); experiment: UGT1A6 inhibition in HLMs (N-acetylserotonin); type: in vitro ADME; conditions: average in triplicate, read-out: IC50, UGT 1A6
T3 construct: pooled HLMs (0.25 mg/mL); tissue XenoTech H2630; host or cells: pooled human liver microsomes, mixed gender
T3 sequence (P19224 27-532): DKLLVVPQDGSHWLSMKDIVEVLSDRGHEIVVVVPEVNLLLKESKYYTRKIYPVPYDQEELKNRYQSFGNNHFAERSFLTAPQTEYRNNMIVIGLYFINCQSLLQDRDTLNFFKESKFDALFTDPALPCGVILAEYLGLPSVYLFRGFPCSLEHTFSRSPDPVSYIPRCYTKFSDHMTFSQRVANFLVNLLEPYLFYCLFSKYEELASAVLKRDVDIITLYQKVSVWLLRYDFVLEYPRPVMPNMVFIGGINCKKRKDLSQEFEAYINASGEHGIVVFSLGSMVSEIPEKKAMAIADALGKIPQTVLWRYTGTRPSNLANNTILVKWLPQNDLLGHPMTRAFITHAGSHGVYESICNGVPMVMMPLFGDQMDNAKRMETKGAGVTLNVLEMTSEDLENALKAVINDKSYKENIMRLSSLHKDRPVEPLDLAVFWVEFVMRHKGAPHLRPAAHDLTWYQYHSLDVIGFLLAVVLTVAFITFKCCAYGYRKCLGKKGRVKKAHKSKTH
Method: as §1

CYP2A6 = target: T4, CYP2A6 (Homo sapiens, UniProt P11509); experiment: CYP2A6 inhibition in HLMs (coumarin); type: in vitro ADME
T4 construct: pooled HLMs (0.25 mg/mL); tissue XenoTech H2630; host or cells: pooled human liver microsomes, mixed gender
T4 sequence (P11509 1-494): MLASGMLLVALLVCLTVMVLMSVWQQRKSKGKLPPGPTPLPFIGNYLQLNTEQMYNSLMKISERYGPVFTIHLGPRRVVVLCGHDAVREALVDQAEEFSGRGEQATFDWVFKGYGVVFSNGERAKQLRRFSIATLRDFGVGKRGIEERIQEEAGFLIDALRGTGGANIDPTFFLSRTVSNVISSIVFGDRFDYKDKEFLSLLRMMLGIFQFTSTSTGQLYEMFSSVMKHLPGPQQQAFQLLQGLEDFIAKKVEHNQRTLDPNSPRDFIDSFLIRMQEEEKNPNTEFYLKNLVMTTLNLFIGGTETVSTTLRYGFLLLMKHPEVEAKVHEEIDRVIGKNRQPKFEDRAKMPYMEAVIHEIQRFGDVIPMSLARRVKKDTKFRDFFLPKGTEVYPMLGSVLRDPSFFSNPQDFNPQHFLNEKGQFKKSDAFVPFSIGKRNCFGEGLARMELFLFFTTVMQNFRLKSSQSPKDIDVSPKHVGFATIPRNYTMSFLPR
Method: as §2

CYP2C19 = CYP2C19 (Homo sapiens, UniProt P33261); experiment: CYP2C19 inhibition in HLMs (S-mephenytoin)
Method: as §3

[1] = IC50 TDI, 30 min pre-incubation with NADPH generating system
[2] = HLMs, 30 min pre-incubation with NADPH generating system, read-out: IC50 TDI, CYP1A2
[3] = HLMs, reversible inhibition, no 30 min NADPH pre-incubation, read-out: IC50 RI, CYP1A2
[4] = 30 min pre-incubation with NADPH generating system, read-out: IC50 TDI, CYP2A6
[5] = reversible inhibition, read-out: IC50 RI, CYP2A6

Sequence of CYP2C19 (P33261 whole entry): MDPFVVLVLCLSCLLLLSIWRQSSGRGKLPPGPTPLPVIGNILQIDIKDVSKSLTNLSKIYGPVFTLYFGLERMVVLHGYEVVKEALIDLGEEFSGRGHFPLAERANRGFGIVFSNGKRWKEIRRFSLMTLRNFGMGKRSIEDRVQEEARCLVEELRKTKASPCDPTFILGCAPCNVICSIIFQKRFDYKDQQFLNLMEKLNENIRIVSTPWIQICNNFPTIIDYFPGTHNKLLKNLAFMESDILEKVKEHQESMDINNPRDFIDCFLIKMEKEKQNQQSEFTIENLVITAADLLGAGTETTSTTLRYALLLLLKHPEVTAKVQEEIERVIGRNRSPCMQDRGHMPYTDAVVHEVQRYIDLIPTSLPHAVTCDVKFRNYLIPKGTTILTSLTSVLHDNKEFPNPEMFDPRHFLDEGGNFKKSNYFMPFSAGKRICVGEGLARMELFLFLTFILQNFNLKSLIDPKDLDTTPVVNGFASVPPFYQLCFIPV
Sequence of CYP2C9 (P11712 whole entry): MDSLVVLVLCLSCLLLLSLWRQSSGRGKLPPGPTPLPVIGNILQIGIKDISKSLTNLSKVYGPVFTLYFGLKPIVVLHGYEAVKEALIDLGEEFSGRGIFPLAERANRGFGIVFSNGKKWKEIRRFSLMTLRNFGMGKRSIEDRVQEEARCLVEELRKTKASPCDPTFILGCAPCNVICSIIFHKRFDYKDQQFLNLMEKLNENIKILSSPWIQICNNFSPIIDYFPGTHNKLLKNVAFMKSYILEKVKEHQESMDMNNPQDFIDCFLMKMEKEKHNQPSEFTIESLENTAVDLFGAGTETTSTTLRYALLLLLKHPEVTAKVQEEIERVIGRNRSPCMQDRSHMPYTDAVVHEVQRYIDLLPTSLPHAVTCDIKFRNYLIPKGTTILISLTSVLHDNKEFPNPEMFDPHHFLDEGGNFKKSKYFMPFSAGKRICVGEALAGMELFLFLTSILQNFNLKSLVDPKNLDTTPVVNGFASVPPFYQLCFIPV

Row | SMILES | IC50 (CYP2C9; IC50 RI, reversible inhibition) [µM] | IC50 (CYP2C9; [1]) [µM] | IC50 (UGT1A9) [µM] | IC50 (CYP1A2; [2]) [µM] | IC50 (CYP1A2; [3]) [µM] | IC50 (UGT1A6) [µM] | IC50 (CYP2A6; [4]) [µM] | IC50 (CYP2A6; [5]) [µM] | IC50 (CYP2C19; IC50 RI, reversible inhibition) [µM] | IC50 (CYP2C19; [1]) [µM] | IC50 (CYP1A2; IC50 RI, CYP1A2, HLMs, reversible inhibition, no 30 min NADPH pre-incubation) [µM] | IC50 (CYP1A2; IC50 TDI, CYP1A2, HLMs, 30 min pre-incubation with NADPH generating system) [µM]
1 | COc1cc2c(c(OC)c1OC)-c1c(cc3c(c1OC)OCO3)C[C@H](C)[C@](C)(O)[C@H]2OC(=O)c1ccccc1 [Gomisin C, gomisin C] | > 50 | > 50 | > 50 | > 50 | > 50 | > 50 | > 50 | > 50 | 16.3 | 20.4 | – | –
2 | COc1cc2c(c(OC)c1OC)-c1c(cc3c(c1OC)OCO3)C[C@H](C)[C@H](C)C2 [Gomisin N, gomisin N] | 36.2 | 10.9 | > 50 | > 50 | > 50 | > 50 | > 50 | 38.2 | 10.4 | 3.5 | – | –
3 | COc1cc2c(c(OC)c1OC)-c1c(cc(OC)c(OC)c1OC)C[C@](C)(O)[C@@H](C)C2 [Schisandrin, schisandrin] | 43 | > 50 | > 50 | – | – | > 50 | > 50 | 40.9 | 5.3 | 46.1 | 4 | > 50
4 | COc1c2c(cc3c1-c1c(cc4c(c1OC)OCO4)C[C@H](C)[C@H](C)C3)OCO2 [Wuweizisu C, wuweizisu C] | 8.9 | 3.6 | > 50 | 22.4 | 25.6 | > 50 | > 50 | > 50 | 2.7 | 1.5 | – | –

Reference: paper PMC8000448, “Inhibitory Effects of Schisandra Lignans on Cytochrome P450s and Uridine 5′-Diphospho-Glucuronosyl Transferases in Human Liver Microsomes” (Pharmaceutics, 2021)
